In patent US10864212B2, “Compositions and methods for treating retinal degradation” (University of Kentucky Research Foundation, priority 2013, dated 2020):
Entries after “also recorded” stand apart in the source; their conditions may differ.

How the values were obtained:
[1] = test system: GFP-expressing lentivirus; assay: Replication of a GFP-expressing lentivirus in HeLa cells; assay type: cell-based; settings: FIG. 22
Description: The present disclosure further provides the results of additional experiments in FIG. 21-FIG. 23.

Caspase-1 [2] = assay: Western blot of Caspase-1 activation in primary human RPE cells transfected with Alu RNA; assay type: cell-based; settings: for Caspase-1 activation / cleavage (p20) induced by Alu RNA: concentration not given; for Caspase-1 maturation caused by Alu RNA: 24 hours after Alu administration, 50-100 uM, FIG. 7
Description: The bottom row is a vinculin loading control. […]
FIG. 7 is a Western blot showing that Alu RNA causes Caspase-1 maturation in primary human RPE cells at 24 hours after Alu administration (top, middle lane, lower band), which is blocked with co-treatment with azidothymidine (AZT), cordycepin, and abacavir (ABC) (50-100 uM; lanes 3-8 from left). The loading control vinculin is shown on the bottom.
FIG. 21 is a Western blot of Caspase-1 activation (p20 subunit) in primary human RPE cells transfected with Alu RNA±me-d4T.
FIG. 35 is a Western blot of Caspase-1 activation in human RPE cells transfected with Alu RNA±NRTIs (3TC, AZT, ABC).
The bottom row in FIG. 5 is a vinculin loading control. […]
Next, FIG. 7 provides evidence of AZT, cordycepin, and abacavir inhibition of inflammasome activation by Alu RNA. Indeed, Alu RNA causes NLRP3 inflammasome activation, which is marked by processing of the enzyme Caspase 1. FIG. 7 is a Western blot showing that Alu RNA causes Caspase-1 maturation in primary human RPE cells at 24 hours after Alu administration (top, lane 2, lower band), which is blocked with co-treatment with azidothymidine (AZT), cordycepin, and abacavir (ABC) (50-100 uM; Lanes 3-8). Again, the loading control vinculin is shown on the bottom.

RPE degeneration = RPE degeneration in mice after sub-retinal injection of a plasmid expressing Alu RNA, systemic drug administration; assay type: in vivo, mouse
Description: FIG. 24, top row, provides flat mounts stained for zonula occludens-1 (ZO-1; red), bottom row. Degeneration is outlined if FIG. 24 by blue arrowheads. Representative images of n=4 are shown.
FIG. 36 and FIG. 37 include fundus photographs: top row; flat mounts stained for zonula occludens-1 (ZO-1; red), bottom row. Degeneration is outlined by blue arrowheads. Scale bars, 50 μm.

IL-1 beta [3] = assay: MSU-induced IL-1 beta secretion from PMA-differentiated THP-1 monocytes (ELISA); assay type: cell-based, human; settings: co-administration at 25-1000 uM, FIG. 11, 12
Description: Human THP-1 monocytes were differentiated into macrophages with PMA.
To illustrate this, human THP-1 monocytes were differentiated into macrophages with PMA. Treatment with MSU increased IL-1 beta secretion compared to non-treated cells.

IL-18 = assay: LPS/ATP-induced IL-18 maturation in mouse bone marrow-derived macrophages (Western blot); assay type: cell-based; settings: supernatants, 100 uM, FIG. 9
Description: (§1) To produce FIG. 9, cell culture supernatants were collected after (i) no treatment, (ii) LPS treatment, or (iii) LPS/ATP treatment of mouse bone marrow-derived macrophages and run on Western blotting probing with antibodies for Caspase-1 and IL-18.

Caspase-1 [4] = assay: LPS/ATP-induced Caspase-1 activation in mouse bone marrow-derived macrophages (Western blot); assay type: cell-based; settings: mouse bone marrow-derived macrophages, supernatants; 100 uM; FIG. 9
Description: as §1
Further, the present inventors also tested whether NRTIs blocked inflammasome activation by LPS/ATP, which is not known to signal via reverse transcriptase (Mariathasan et al., 2004; Mariathasan et al., 2006; Martinon et al., 2002).
(§2) FIGS. 38-41 illustrate that NRTIs block LPS/ATP-induced inflammasome activation. […] Representative images of n=3-4 experiments are provided in each of FIGS. 38-41.

[5] = test system: Raji TK^+ and Raji TK^− cells; assay: Phosphorylation of AZT to AZT-triphosphate in Raji TK+ and TK- cells (LC-MS); assay type: in vitro ADME; settings: FIG. 40, 50
Description: FIG. 50 is a standard curve of AZT-TP standards (black circle).
(§3) To determine whether LPS/ATP-induced inflammasome activation can be inhibited without RT inhibition, the present inventors utilized thymidine kinase-deficient (Raji/TK^−) and -expressing (Raji/TK^+) cells (Balzarini et al., 1989). After addition of AZT, […], but not TK^− cells, the present inventors produced AZT-triphosphate (AZT-TP), the AZT metabolite required for RT inhibition (FIG. 40; FIG. 46, FIG. 47, FIG. 48, FIG. 49, FIG. 50).
FIG. 50 is a standard curve of AZT-TP standards (black circle). […] FIG. 50 is representative of two experiments.

IL-1 beta [6] = assay: LPS/ATP-induced IL-1 beta activation in Raji TK- and TK+ cells (Western blot of cell lysates); assay type: cell-based; settings: FIG. 41
Description: as §3, §2

human P2X7 receptor = biological target: T1, human P2X7 receptor (Homo sapiens, UniProt Q99572); assay: bzATP-induced YO-PRO-1 dye uptake in HEK293 cells stably expressing the human P2X7 receptor; assay type: cell-based
T1 construct: expressed in transfected cells
T1 sequence (Q99572 1-595): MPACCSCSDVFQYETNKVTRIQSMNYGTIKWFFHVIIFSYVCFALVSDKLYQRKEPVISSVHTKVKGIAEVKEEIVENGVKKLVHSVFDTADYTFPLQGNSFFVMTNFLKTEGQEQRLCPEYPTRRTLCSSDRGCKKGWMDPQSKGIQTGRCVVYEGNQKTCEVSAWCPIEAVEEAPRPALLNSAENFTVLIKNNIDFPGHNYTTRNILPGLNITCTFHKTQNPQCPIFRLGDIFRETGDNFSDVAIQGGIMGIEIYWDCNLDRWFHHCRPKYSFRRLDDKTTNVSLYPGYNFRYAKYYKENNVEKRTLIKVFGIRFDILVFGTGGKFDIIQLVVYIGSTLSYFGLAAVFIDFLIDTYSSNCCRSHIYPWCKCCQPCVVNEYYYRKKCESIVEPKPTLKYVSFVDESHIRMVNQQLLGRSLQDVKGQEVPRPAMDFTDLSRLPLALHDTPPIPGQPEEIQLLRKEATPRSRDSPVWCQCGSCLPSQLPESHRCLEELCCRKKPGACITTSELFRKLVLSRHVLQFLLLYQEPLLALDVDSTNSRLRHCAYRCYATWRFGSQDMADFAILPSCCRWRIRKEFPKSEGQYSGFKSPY
Description: Finally, P2X7 activation is associated with the formation of a large pore that is permeable to molecules of up to ˜1000 Da (Adinolfi et al., 2005; Cheewatrakoolpong et al., 2005; Surprenant et al., 1996).

COC[C@@H]1C=C[C@H](n2cc(C)c(=O)[nH]c2=O)O1 [me-d4T, 5′-OCH3-d4T]
Replication of a GFP-expressing lentivirus ([1]; HeLa cells): does not block lentivirus replication | Reverse transcriptase inhibition ([1]; confirmed by lentivirus replication): does not inhibit reverse transcriptase | Caspase-1 activation / cleavage (p20) induced by Alu RNA (Caspase-1 [2]; FIG. 21, 34, 35, 51-53): blocks Caspase-1 activation in human RPE cells | Caspase-1 activation / cleavage (p20) induced by Alu RNA (Caspase-1 [2]; FIG. 21, 34, 35, 51-53, listed as 5′-methoxy-d4T): block Caspase 1 activation by Alu RNA | Alu-induced RPE degeneration (RPE degeneration; me-d4T intraperitoneal injection, n=4, FIG. 24): prevents Alu-induced RPE degeneration in mice

Nc1ncnc2c1ncn2[C@@H]1O[C@H](CO)C[C@H]1O [cordycepin]
IL-1 beta secretion induced by MSU (IL-1 beta [3]): did not significantly affect IL-1beta secretion | Caspase-1 maturation caused by Alu RNA (Caspase-1 [2]): blocked | IL-18 maturation induced by LPS/ATP (IL-18): inhibit | Caspase-1 activation (active p20 band) induced by LPS/ATP (Caspase-1 [4]): inhibit

Cc1cn([C@H]2C[C@H](N=[N+]=[N-])[C@@H](CO)O2)c(=O)[nH]c1=O [AZT, 3′-azido-2′,3′-dideoxythymidine]
Phosphorylation of AZT to AZT-triphosphate (AZT-TP) ([5]; Raji TK^+ cells): produced AZT-TP; also recorded: phosphorylate AZT to AZT-triphosphate (AZT-TP) | Phosphorylation of AZT to AZT-triphosphate (AZT-TP) ([5]; Raji TK^− (thymidine kinase-deficient) cells): is not phosphorylated; also recorded: AZT was not phosphorylated; also recorded: AZT-TP was not detectable; also recorded: but not Raji TK^− cells | Caspase-1 maturation caused by Alu RNA (Caspase-1 [2]): blocked | Caspase-1 activation / cleavage (p20) induced by Alu RNA (Caspase-1 [2]; FIG. 21, 34, 35, 51-53): block Caspase 1 activation by Alu RNA; also recorded: block Caspase-1 cleavage induced by Alu RNA | RPE degeneration caused by pAlu (RPE degeneration; intraperitoneal administration of AZT, FIG. 37): prevent RPE degeneration; also recorded: prevented | IL-1 beta activation by LPS/ATP (IL-1 beta [6]; Raji TK^+ cells): blocks IL-1 beta activation | IL-1 beta activation by LPS/ATP (IL-1 beta [6]; Raji TK^− cells): still blocks LPS/ATP-induced interleukin-1 beta secretion; also recorded: still inhibited LPS/ATP-induced interleukin-1 beta maturation; also recorded: blocks IL-1 beta activation | P2X7-dependent uptake of YO-PRO1 after addition of bzATP (human P2X7 receptor; human P2X7-overexpressing HEK293 stable cell line, concentration not given): inhibited P2X7-dependent uptake of the fluorescent dye YO-PRO1

Clc1cccc(-c2nnnn2Cc2cccnc2)c1Cl [A438079]
P2X7-mediated YO-PRO-1 dye uptake (fluorescence) induced by bzATP (human P2X7 receptor; bzATP 100 μM, 64 μM for both drugs, p<0.05, n=12, FIG. 43): inhibited

Clc1ccc(C(c2ccc(Cl)cc2)n2cc[n+](CC(OCc3ccc(Cl)cc3Cl)c3ccc(Cl)cc3Cl)c2)cc1 (stereo not shown) [calmidazolium]
Caspase-1 activation / cleavage (p20) induced by Alu RNA (Caspase-1 [2]; FIG. 21, 34, 35, 51-53): not inhibited
